Measured values: US6004957A, “Sulfonamide inhibitors of aspartyl protease” (Vertex Pharmaceuticals, Incorporated, priority 1998, dated 1999)
Read-outs that look alike come from different tables or passages of the source.

How the values were obtained:
HIV-1 protease = HIV-1 protease (Human immunodeficiency virus type 1 group M subtype B, UniProt P04585); experiment: biochemical; settings: Table VII
Text: We measured the inhibition constants of the compounds listed in Table VII against HIV-1 protease using the above-cited method of Pennington et al.

[1] = system: HIVIIIb in CCRM-CEM cells; experiment: Anti-viral potency in CCRM-CEM cells acutely infected with HIVIIIb (method of Meek et al.), extracellular p24 antigen; type: cell-based, HIV-1; settings: Table VIII, read-out: IC90 Range
Outline: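 Compounds in DMSO were added to CCRM-CEM cells (CD4+ human T-cell lymphoma) acutely infected with HIVIIIb following Meek et al. Inhibition of viral replication was determined from extracellular p24 antigen concentration measured by enzyme immunoassay.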

[2] = Human immunodeficiency virus 1, HIV replication

Ki (HIV-1 protease) [nM] | IC90 [1, 2] [nM] | Compound | IC90 ([1]; HIV replication) [nM]
0.1 | < 100 | CC(C)CN(C[C@@H](O)[C@H](Cc1ccccc1)NC(=O)[C@H](CC(N)=O)NC(=O)c1ccc2ccccc2n1)S(=O)(=O)c1ccc(-c2ccccn2)s1 [Compound 12, (S)-N-1-(1-(S)-Benzyl-2-(syn)-hydroxyl-3-(isobutyl-(5-pyridin-2-yl-thiophene-2-sulfonyl)-amino)-propyl)-2-((quinoline-2-carbonyl)-amino)-succinamide] | –
0.1 | 101 to 1000 | CC(C)CN(C[C@@H](O)[C@H](Cc1ccccc1)NC(=O)[C@@H](NC(=O)OCc1ccccn1)C(C)C)S(=O)(=O)c1ccc(F)cc1 [Compound 26] | –
11 | 1000 to 10000 | CC(C)CN(C[C@@H](O)[C@H](Cc1ccccc1)NC(=O)OC(C)(C)C)S(=O)(=O)c1cccc(F)c1 [Compound 50] | –
0.4 | 101 to 1000 | CC(C)CN(C[C@@H](O)[C@H](Cc1ccccc1)NC(=O)OC1CCOC1)S(=O)(=O)c1ccc(F)cc1 (stereo partly drawn) [Compound 52, 4-Fluoro-N-((2 syn,3S)-2-hydroxy-4-phenyl-3-((R)-tetrahydrofuran-3-yloxycarbonylamino)-butyl)-N-isobutyl-benzenesulfonamide and 4-Fluoro-N-((2 syn,3S)-2-hydroxy-4-phenyl-3-((R)-tetrahydrofuran-3-yloxycarbonylamino)-butyl)-N-isobutyl-benzenesulfonamide] | –
72 | – | CC(C)CN(C[C@@H](O)[C@H](Cc1ccccc1)NC(=O)OC(C)(C)C)S(=O)(=O)c1ccc(N)c([N+](=O)[O-])c1 [Compound 62] | –
120 | – | CC(C)CN(C[C@@H](O)[C@H](Cc1ccccc1)NC(=O)OC(C)(C)C)S(=O)(=O)N(C)C [Compound 68] | –
290 | – | CC(C)N(C[C@@H](O)[C@H](Cc1ccccc1)NC(=O)OC(C)(C)C)S(=O)(=O)c1ccc(F)cc1 [Compound 75] | –
10 | 1000 to 10000 | C=CCOC(=O)N[C@@H](Cc1ccccc1)[C@H](O)CN(CC(C)C)S(=O)(=O)c1ccc(F)c(NC(C)=O)c1 [Compound 87] | –
20 | – | CC(=O)Nc1ccc(S(=O)(=O)N(CC(C)C)C[C@@H](O)[C@H](Cc2ccccc2)NC(=O)OCC2CCOC2)cc1 (stereo partly drawn) [Compound 92] | –
2.5 | 101 to 1000 | CC(C)CN(C[C@@H](O)[C@H](Cc1ccccc1)NC(=O)OCC1CCOC1)S(=O)(=O)c1ccc(F)cc1 (stereo partly drawn) [Compound 97, 4-Fluoro-N-(2 syn,3S)-2-hydroxy-4-phenyl-3-((tetrahydro-furan-(R)-3-ylmethoxycarbonylamino)-butyl)-N-isobutyl-benzenesulfonamide and 4-Fluoro-N-(2 syn,3S)-2-hydroxy-4-phenyl-3-((tetrahydro-furan-(S)-3-ylmethoxycarbonylamino)-butyl)-N-isobutyl-benzenesulfonamide] | –
2 | 1000 to 10000 | CC(C)CN(C[C@@H](O)[C@H](Cc1ccccc1)NC(=O)OCc1ccccn1)S(=O)(=O)c1ccc(F)c(F)c1 [Compound 108] | –
< 0.1 | – | O=C(N[C@@H](Cc1ccccc1)[C@H](O)CN(CC1CCCC1)S(=O)(=O)c1ccc2c(c1)OCO2)O[C@H]1CCOC1 [Compound 176] | –
– | 101 to 1000 | CC[C@H](C)[C@H](NC(=O)OCc1ccccc1)C(=O)N[C@@H](Cc1ccccc1)[C@H](O)CN(CC(C)C)S(=O)(=O)c1ccc(F)c(NC(C)=O)c1 [Compound 187, Benzyloxycarbonyl-(L)-isoleucine-N-(5-((3-amino-(2 syn,3S)-2-hydroxy-4-phenyl-butyl)-isobutyl-sulfamoyl)-2-fluoro-phenyl)-acetamide] | –
– | 1000 to 10000 | CC[C@H](C)[C@H](NC(=O)c1cnc2ccccc2n1)C(=O)N[C@@H](Cc1ccccc1)[C@H](O)CN(CC(C)C)S(=O)(=O)c1ccc(F)c(NC(C)=O)c1 [Compound 188] | –
67 | 1000 to 10000 | CC(C)CN(C[C@H](O)[C@H](Cc1ccccc1)NC(=O)[C@H](CC(N)=O)NC(=O)c1ccc2ccccc2n1)S(=O)(=O)c1cccc2nonc12 [Compound 192] | –
– | – | (S)-N-1-(3-((3-Acetylamino-4-fluoro-benzenesulfonyl)-benzyl-amino)-(1S,2 syn)-1-benzyl-2-hydroxy-propyl)-2-((quinoline-2-carbonyl)-amino)-succinamide and (S)-N-1-(3-((4-Acetylamino-3-fluoro-benzenesulfonyl)-benzyl-amino)-(1S,2 syn)-1-benzyl-2-hydroxy-propyl)-2-((quinoline-2-carbonyl)-amino)-succinamide [Compound 2] | 101 to 1000

Compound | Ki (HIV-1 protease) [nM] | IC90 [1, 2] [nM] | IC90 ([1]; HIV replication) [nM]
Nc1ccc(S(=O)(=O)N(CC2CCCC2)C[C@@H](O)[C@H](Cc2ccccc2)NC(=O)O[C@H]2CCOC2)cc1 [Compound 171, 4-Amino-N-cyclopentylmethyl-N-((2 syn,3S)-2-hydroxy-4-phenyl-3-((S)-tetrahydrofuran-3-yloxycarbonylamino)-butyl)-banzenesulfonamide] | – | < 100 | –
Nc1ccc(S(=O)(=O)N(CC2CCCC2)C[C@@H](O)[C@H](Cc2ccccc2)NC(=O)O[C@H]2CCOC2)c(N)c1 [Compound 173, 2,4-Diamino-N-cyclopentylmethyl-N-((2 syn,3S)-2-hydroxy-4-phenyl-3-((S)-tetrahydrofuran-3-yloxycarbonylamino)-butyl)-benzenesulfonamide] | – | < 100 | –
CC(C)CN(C[C@@H](O)[C@H](Cc1ccccc1)NC(=O)O[C@H]1CCOC1)S(=O)(=O)c1ccc(O)cc1 [Compound 175] | – | < 100 | –
O=C(N[C@@H](Cc1ccccc1)[C@H](O)CN(CC1CCCC1)S(=O)(=O)c1ccc(F)cc1)O[C@H]1CCOC1 [Compound 182, N-Cyclopentylmethyl-4-fluoro-N-((2 syn,3S)-2-hydroxy-4-phenyl-3-((S)-tetrahydrofuran-3-yloxycarbonylamino)-butyl)-benzenesulfonamide] | – | 101 to 1000 | –
O=C(N[C@@H](Cc1ccccc1)[C@H](O)CN(CC1CCCC1)S(=O)(=O)c1ccc(Cl)c(Cl)c1)O[C@H]1CCOC1 [Compound 183, 3,4-Dichloro-N-cyclopentylmethyl-N-((2 syn,3S)-2-hydroxy-4-phenyl-3-((S)-tetrahydrofuran-3-yloxycarbonylamino)-butyl)-benzenesulfonamide] | – | 101 to 1000 | –
COc1ccc(S(=O)(=O)N(CC2CCCC2)C[C@@H](O)[C@H](CC2CCCCC2)NC(=O)O[C@H]2CCOC2)cc1 [Compound 195, N-((2 syn,3S)-4-Cyclohexyl-2-hydroxy-3-((S)-tetrahydrofuran-3-yloxycarbonylamino)-butyl)-N-cyclopentylmethyl-4-methoxy-benzenesulfonamide] | – | < 100 | –
